How the values were obtained:
[1] = system: breast cancer patients (AZURE trial); assay: AZURE trial, zoledronic acid treatment effect according to MAF FISH stratification (Example 2); assay type: in vivo, human; details: for HR, risk of bone metastasis (anytime), zoledronic acid treatment / HR, bone metastatic event (anytime), zoledronic acid treatment: cutoff 2.5
Excerpt: The MAF FISH assay was produced by Kreatech for Inbiomotion based on Kreatech proprietary FISH technology. The probe set contains two probes: a MAF 16q23 probe plus a D16Z3 probe as control of chromosome 16 centromeric region. The assay was validated using a 16q23/D16Z3 probe (Inbiomotion) and Poseidon Tissue Digestion Kit from Kreatech. The scoring criteria were defined in a fact sheet and as follows: two FISH evaluable results per patient, and the highest value was selected. The scoring algorithm was as follows: 20 cells counted for target and centromere amplification, if the gene count is >2 and ≤3, then 50 cells were counted.
An overview of the AZURE clinical trial (Coleman et al N Eng J Med 2011; 365: 1396-1405 and AZURE Current Controlled Trials number, ISRCTN79831382 and ClinicalTrials.gov identifier NCT00072020) study design, whose patients were used to validate MAF, is provided in FIG. 2. MAF was validated in a retrospective analysis of the AZURE trial using patient tumor sample prospectively collected under regulatory compliant conditions. Out of the 3,360 patients recruited, 1,769 donated tumor tissue (52.4%). There were 13 TMAs (tissue micro array) (150 patient samples each) (1,769 patients). There were 4 replicas of each TMA using different tissue cores (6,326 (4× patient)). One TMA had only 1 replica and two TMAs had three replicas. Based on the H&E analysis (hematoxylin and eosin) (FIG. 3) (6,326): 3,978 cores were evaluable (63%) and 2,348 were nonevaluable.
For the FISH assay, there were 2,067 FISH evaluable cores (56%). […] 567 patients were nonevaluable by FISH in any of the 4 replicas (32%).
With regard to molecular variables, for FISH analysis: MAF copy number: numerical and categorical (+/−cut-off>=2.5) variable; % of nucleic MAF amplified (MAF CN>2):numberical+categorical (cut-off TBD). For the IHC analysis: IHC H-Score: numerical+categorical (cut-off>=200), IHC OD: numerical+categorical (cut-off tBD). The following clinical variables were analyzed: disease-free survival (DFS), invasive disease-free survival (IDFS), overall survival (OS), first recurrence in bone, bone recurrence at any time, time to first DFS event in bone, time to first DFS event not in bone, response to zoledronic acid treatment.
In analyzing the MAF FISH prognostic value, the patients from the control and treatment arms were pooled for the initial analysis. Optimized cut-offs for each variable to be analyzed were used when indicated. Death as a competing event was used in time to bone metastasis, anytime. The following clinical variables were analyzed: time to bone metastasis (anytime), time to bone metastasis (as first event), IDFS (including ipsilateral invasive breast tumor recurrence, regional invasive breast cancer recurrence, metastatic disease-breast cancer, death attributable to any cause, including breast cancer, contralateral invasive breast cancer, second primary non-breast invasive cancer), and overall survival.
The control and zoledronic acid treatment arms from the AZURE study described in Example 1 were evaluated to determine the effect of zoledronic acid treatment on MAF-stratified patients.

[2] = system: patients with invasive stage II or III breast cancer (AZURE trial); assay: AZURE trial, effect of MAF amplification on treatment outcomes with adjuvant zoledronic acid (Example 3); assay type: in vivo, human
Excerpt: 3,360 patients from 174 centers worldwide were recruited to the AZURE trial between Sep. 4, 2003, and Feb. 16, 2006. Eligible patients had histologically confirmed invasive stage II or III breast cancer of any subtype, with either pathologically involved axillary lymph node metastasis or a T3 or T4 primary tumor treated with curative intent and complete resection of the primary tumor (or planned resection if patients were being treated with neoadjuvant chemotherapy). Other inclusion criteria were age 18 years or older, Karnofsky performance status score 80 or more, and not being pregnant or breastfeeding. Patients were excluded if they had clinical or imaging evidence of distant metastases, current or recent (<1 year) use of bisphosphonates, or pre-existing bone disease likely to require bone-targeted treatment. All patients gave written informed consent. In the UK, patients also provided voluntary specific consent for use of biological materials (primary tumor and blood samples). Before randomization, patients underwent hematological, renal, hepatic function, and staging imaging tests according to institutional protocols. Those confirmed to be eligible were randomly assigned (1:1) to standard adjuvant systemic treatment alone or with zoledronic acid from a central computer-generated schedule held at the Clinical Trials Research Unit, University of Leeds, Leeds, UK. A minimization process that took into account the number of involved axillary lymph nodes, clinical tumor stage, estrogen receptor status, type and timing of systemic therapy, menopausal status, statin use, and treating center was used.
Patients received standard systemic therapy with (neo-) adjuvant chemotherapy, endocrine therapy, or both, alone (control group) or with 4 mg zoledronic acid given intravenously every 3-4 weeks for the first six doses, every 3 months for eight doses, and every 6 months for five doses to complete 5 years of treatment (zoledronic acid group). Oral calcium and vitamin D supplements were recommended for all patients in the first 6 months of treatment, and continued thereafter at the discretion of the treating physician. Adjuvant systemic treatments and locoregional radiotherapy were used in accordance with the standard protocols of each participating institution.
The follow-up schedule was similar in both study groups, and included clinical assessments, monitoring of adverse events, and hematological, renal, and hepatic function tests. Routine follow-up imaging was not mandated, but investigations were done for clinically suspected recurrence if deemed appropriate by the treating physician. Recurrence was defined by the date on which it was first suspected, to reduce the risk of ascertainment bias. 91% of recurrences were independently validated by either on-site or telephone based monitoring. After treatment with zoledronic acid was completed, patients were followed up annually for disease and safety endpoints.
5 μm thick slices were cut from each TMA block and oriented to match the TMA map to allow identification of each tissue core. The slices were mounted onto Superfrost plus glass slides (Thermo Fisher Scientific, Waltham, MA, USA) and stained with hematoxylin and eosin to confirm the presence of assessable tumor. MAF amplification was assessed with the validated MAFTEST fluorescence in situ hybridization (FISH) with the MAF/D16Z3 probe (Inbiomotion, Barcelona, Spain). A central laboratory (Targos Molecular Pathology, Kassel, Germany) validated the analytical and diagnostic performance of the assay, established acceptance criteria, included appropriate quality controls for each assay, and performed the analyses masked to treatment assignment. Briefly, TMA sections were rehydrated in ethanol series, washed with water, and pretreated at 98° C. for 15 min. Samples were digested with pepsin in a Poseidon Tissue Digestion Kit (Kreatech, Amsterdam, Netherlands) for 30 min, dehydrated in ethanol series, and dried. […]

[3] = zoledronic acid group (420 patients), median follow-up 84·6 months

O=P(O)(O)C(O)(Cn1ccnc1)P(=O)(O)O [zoledronic acid]
HR, risk of bone metastasis (anytime), zoledronic acid treatment ([1]; MAF FISH not positive patients, death as competing event, p=0.03): 0.65 | HR, overall survival outcome, zoledronic acid treatment ([1]; MAF negative post menopausal patients, 95% CI 0.31-1.01): 0.56 | HR, DFS outcome, zoledronic acid treatment ([1]; MAF negative post menopausal patients, 95% CI 0.33-0.95): 0.56 | HR, bone metastatic event (anytime), zoledronic acid treatment ([1]; MAF non-positive non-post-menopausal patients, p=0.08): 0.66 | HR, bone metastatic event (anytime), zoledronic acid treatment ([1]; MAF non-positive postmenopausal patients, limited number of events): 0.63 | HR, bone metastatic event (anytime), zoledronic acid treatment ([1]; MAF positive non-post-menopausal patients, p=0.045): 2.44 | HR, risk of bone metastasis (anytime), zoledronic acid treatment ([1]; MAF positive patients, death as competing event, non-significant, p=0.22): 1.54 | HR, bone metastatic event (anytime), zoledronic acid treatment ([1]; MAF positive postmenopausal patients, p=0.26, limited number of events): 0.46 | HR, risk of bone metastasis at any time ([1]; zoledronic acid arm, MAF FISH not positive (<2.3) compared to MAF FISH positive, death as competing event, p=0.01): 0.52 | HR, time to recurrence (invasive disease) ([1]; zoledronic acid treatment arm, by MAF FISH status (positive >=2.2), multivariate analysis, p<0.001): 0.52 | effect on extraskeletal recurrence ([2]; MAF-negative tumors, nonpostmenopausal at start of treatment): No effect | patients who died ([2]; MAF-negative tumors, zoledronic acid group (321 patients)): 18% | number of events, invasive-disease-free survival ([2]; MAF-negative, non-postmenopausal zoledronic acid group (216 patients)): 216 (61) | number of events, invasive-disease-free survival ([2]; MAF-negative, postmenopausal zoledronic acid group (105 patients)): 105 (29) | patients who died ([2]; MAF-positive tumors, non-postmenopausal at start of treatment, zoledronic acid group (66 patients)): 36% | patients who died ([2]; MAF-positive tumors, postmenopausal, zoledronic acid group (33 patients)): 30% | patients who died ([2]; MAF-positive tumors, zoledronic acid group (99 patients)): 34% | number of events, invasive-disease-free survival ([2]; MAF-positive, non-postmenopausal zoledronic acid group (66 patients)): 66 (33) | number of events, invasive-disease-free survival ([2]; MAF-positive, postmenopausal zoledronic acid group (33 patients)): 33 (12) | patients with an extraskeletal invasive-disease-free survival event ([2]; zoledronic acid group): 98 | patients who had died [2, 3]: 91 | patients with a first event in bone [2, 3]: 21 | patients with an invasive-disease-free survival event [2, 3]: 135 | number of events, invasive-disease-free survival ([2]; zoledronic acid group, <50 years, MAF-negative (142 patients)): 41 | number of events, invasive-disease-free survival ([2]; zoledronic acid group, <50 years, MAF-positive (44 patients)): 23 | number of events, invasive-disease-free survival ([2]; zoledronic acid group, ≥50 years, MAF-negative (179 patients)): 49 | number of events, invasive-disease-free survival ([2]; zoledronic acid group, ≥50 years, MAF-positive (55 patients)): 22

From patent publication US12233077B2, “Therapeutic treatment of breast cancer based on c-MAF status” (INBIOMOTION S.L., priority 2017, dated 2025)
